Data as given in patent US6924302B2, “Substituted triazole diamine derivatives as kinase inhibitors” (Ortho McNeil Pharmaceutical, Inc., priority 2000, dated 2005).

Experiments:
[1] = tested on: HeLa cervical adenocarcinoma; test: Inhibition of Cell Proliferation (14C-thymidine incorporation), HeLa; assay type: cell-based; conditions: Homo sapiens, HeLa cell line
How it was run: (§1)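 Scintillation counting of methyl 14C-thymidine taken up into new DNA gives the read-out. Cells (3000-8000/well) had 24 h attachment, 24 h compound treatment, then 24 h more with drug plus 0.2 uCi/well label, all at 37° C under 5% CO2.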

[2] = biological target: T1, Casein Kinase 2 (alpha and beta subunits) (Homo sapiens, UniProt P68400); test: Kinase Selectivity Assay Casein Kinase 2; assay type: biochemical; conditions: Kinase Selectivity, Tables 2a-2k; read-out: Caseine Kinase 2 IC50
T1 construct: purchased New England Biolabs 6010; host or cells: E. coli
T1 sequence (P68400 whole entry): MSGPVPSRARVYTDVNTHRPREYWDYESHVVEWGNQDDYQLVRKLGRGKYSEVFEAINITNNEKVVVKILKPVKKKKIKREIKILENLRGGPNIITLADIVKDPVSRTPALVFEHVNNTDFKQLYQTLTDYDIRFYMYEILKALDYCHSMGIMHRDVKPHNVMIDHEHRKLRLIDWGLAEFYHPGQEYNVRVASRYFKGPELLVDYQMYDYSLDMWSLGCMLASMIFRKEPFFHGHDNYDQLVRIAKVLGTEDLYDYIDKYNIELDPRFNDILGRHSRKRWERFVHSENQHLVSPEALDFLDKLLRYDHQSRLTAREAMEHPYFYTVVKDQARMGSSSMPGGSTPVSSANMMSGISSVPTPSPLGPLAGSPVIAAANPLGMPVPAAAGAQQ
T1 sequence (P67870 whole entry partner): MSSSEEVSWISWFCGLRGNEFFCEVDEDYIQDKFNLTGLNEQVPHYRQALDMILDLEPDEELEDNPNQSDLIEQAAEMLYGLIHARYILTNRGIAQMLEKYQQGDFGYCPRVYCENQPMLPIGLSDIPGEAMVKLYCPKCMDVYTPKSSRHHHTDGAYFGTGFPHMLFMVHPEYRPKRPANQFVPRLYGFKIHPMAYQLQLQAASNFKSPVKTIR
How it was run: (§2)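 Biotinylated peptide phosphorylation measured as ^33P-γ-ATP incorporation on streptavidin plates after 1 h at 30° C, 1% DMSO final, enzyme in 50 mM Tris-HCl pH 8.0, 0.1% BSA. Compounds in duplicate at 8 concentrations, 100 uM to 10 pM. IC50 from percent inhibition versus log concentration.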

Insulin Receptor Kinase = Insulin Receptor Kinase (Homo sapiens, UniProt P06213); test: Kinase Selectivity Assay Insulin Receptor Kinase; assay type: biochemical; conditions: Kinase Selectivity, Tables 2a-2k; read-out: Insulin R Kinase IC50
Insulin Receptor Kinase, sequence (P06213 980-1352): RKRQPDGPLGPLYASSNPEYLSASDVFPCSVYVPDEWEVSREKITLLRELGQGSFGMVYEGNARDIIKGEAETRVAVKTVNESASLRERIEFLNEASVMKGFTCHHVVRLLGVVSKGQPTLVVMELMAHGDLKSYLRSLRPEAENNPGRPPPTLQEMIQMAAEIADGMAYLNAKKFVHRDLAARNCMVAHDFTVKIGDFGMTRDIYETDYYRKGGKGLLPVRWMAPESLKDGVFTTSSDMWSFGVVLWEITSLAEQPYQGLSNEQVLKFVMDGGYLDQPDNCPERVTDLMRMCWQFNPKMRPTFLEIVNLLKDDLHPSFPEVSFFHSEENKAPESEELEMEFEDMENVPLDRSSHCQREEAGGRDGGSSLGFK
How it was run: as §2

[3] = biological target: T2, MAP Kinase (ERK-2 isoform) (Rattus norvegicus, UniProt P63086); test: Kinase Selectivity Assay MAP Kinase (ERK-2); assay type: biochemical; conditions: Kinase Selectivity, Tables 2a-2k; read-out: ERK 2 IC50
T2 construct: polyhistidine (N); host or cells: E. coli
T2 sequence (P63086 whole entry, canonical isoform): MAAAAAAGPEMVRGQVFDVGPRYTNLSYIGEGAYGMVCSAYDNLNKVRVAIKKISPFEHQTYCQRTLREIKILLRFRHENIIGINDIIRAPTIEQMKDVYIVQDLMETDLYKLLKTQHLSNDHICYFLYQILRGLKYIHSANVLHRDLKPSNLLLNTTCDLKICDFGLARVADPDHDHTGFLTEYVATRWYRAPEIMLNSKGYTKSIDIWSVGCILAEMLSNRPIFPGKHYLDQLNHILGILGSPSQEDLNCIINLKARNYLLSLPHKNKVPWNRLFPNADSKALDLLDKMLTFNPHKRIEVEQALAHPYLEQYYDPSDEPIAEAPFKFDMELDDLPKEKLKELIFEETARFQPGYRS
How it was run: as §2

[4] = biological target: T3, Glycogen Synthase Kinase-3 (beta isoform) (Oryctolagus cuniculus, UniProt G1T8E2); test: Kinase Selectivity Assay Glycogen Synthase Kinase-3; assay type: biochemical, rabbit; conditions: Kinase Selectivity, Tables 2a-2k; read-out: GSK-3 IC50
T3 construct: purchased New England Biolabs 6040; host or cells: E. coli
T3 sequence (G1T8E2 1-432): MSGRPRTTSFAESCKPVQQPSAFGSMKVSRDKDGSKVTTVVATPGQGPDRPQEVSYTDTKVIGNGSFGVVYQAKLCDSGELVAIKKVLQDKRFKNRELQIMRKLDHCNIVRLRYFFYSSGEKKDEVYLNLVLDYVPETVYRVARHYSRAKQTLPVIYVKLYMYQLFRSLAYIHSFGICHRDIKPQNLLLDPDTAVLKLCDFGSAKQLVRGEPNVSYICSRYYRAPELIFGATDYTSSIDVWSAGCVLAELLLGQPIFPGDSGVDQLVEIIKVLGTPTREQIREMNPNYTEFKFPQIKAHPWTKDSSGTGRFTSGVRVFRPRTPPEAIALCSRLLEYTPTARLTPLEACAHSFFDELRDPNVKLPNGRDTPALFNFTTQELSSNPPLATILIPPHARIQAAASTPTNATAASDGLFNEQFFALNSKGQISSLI
How it was run: as §2

HCT-116 colon carcinoma = test: Inhibition of Cell Proliferation (14C-thymidine incorporation), HCT-116; assay type: cell-based; conditions: Homo sapiens, HCT-116 cell line
How it was run: as §1

[5] = biological target: T4, PDGF-R (platelet derived growth factor receptor) beta subunit kinase domain (Homo sapiens, UniProt P09619); test: Kinase Selectivity Assay PDGF-R; assay type: biochemical; conditions: Kinase Selectivity, Tables 2a-2k; read-out: PDGF-R kinase IC50
T4 construct: nucleotides 1874-3507 of the human PDGF-R beta subunit kinase domain; polyhistidine (N)
T4 sequence (P09619 564-1106): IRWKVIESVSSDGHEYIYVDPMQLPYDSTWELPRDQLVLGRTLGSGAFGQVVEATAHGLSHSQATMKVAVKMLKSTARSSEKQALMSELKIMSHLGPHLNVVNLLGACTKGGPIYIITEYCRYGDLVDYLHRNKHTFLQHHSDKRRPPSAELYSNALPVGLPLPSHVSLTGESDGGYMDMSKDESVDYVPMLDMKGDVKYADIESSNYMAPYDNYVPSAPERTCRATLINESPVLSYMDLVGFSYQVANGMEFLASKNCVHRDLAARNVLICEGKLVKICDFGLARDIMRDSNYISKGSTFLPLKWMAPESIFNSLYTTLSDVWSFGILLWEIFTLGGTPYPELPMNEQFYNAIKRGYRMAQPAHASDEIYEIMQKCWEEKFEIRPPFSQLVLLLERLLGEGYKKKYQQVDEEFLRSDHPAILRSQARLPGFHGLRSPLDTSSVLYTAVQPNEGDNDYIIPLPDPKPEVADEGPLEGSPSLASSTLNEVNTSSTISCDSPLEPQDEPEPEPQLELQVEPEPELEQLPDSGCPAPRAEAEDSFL
How it was run: as §2

[6] = biological target: T5, Calmodulin Kinase (calmodulin-dependent protein kinase 2) (Rattus norvegicus, UniProt P11275); test: Kinase Selectivity Assay Calmodulin Kinase; assay type: biochemical; conditions: Kinase Selectivity, Tables 2a-2k; read-out: Calmodulin Kinase 2 IC50
T5 construct: a truncated version of the alpha subunit of the rat protein; purchased New England Biolabs 6060; host or cells: insect cells
How it was run: as §2

SMILES | IC50 [1] [nM] | IC50 [2] [µM] | IC50 (Insulin Receptor Kinase) [µM] | IC50 [3] [µM] | IC50 [4] [µM] | IC50 (HCT-116 colon carcinoma) [nM] | IC50 [5] [µM] | IC50 [6] [µM]
CC(O)c1ccc(F)c(C(=O)n2nc(Nc3ccc(S(N)(=O)=O)cc3)nc2N)c1F (stereo not drawn) [Cpd 58, 4-[[5-amino-1-[2,6-difluoro-3-(1-hydroxyethyl)benzoyl]-1H-1,2,4-triazol-3-yl]amino]-benzenesulfonamide] | 186 | > 100 | > 100 | 10.7 | 0.015 | 1270 | 8.53 | > 100
Cc1ccc(F)c(C(=O)n2nc(Nc3ccc(S(N)(=O)=O)cc3)nc2N)c1Cl [Cpd 69, 4-[[5-amino-1-(2-chloro-6-fluoro-3-methylbenzoyl)-1H-1,2,4-triazol-3-yl]amino]-benzenesulfonamide] | 218 | > 100 | 45.1 | 12.5 | 0.147 | 1720 | 0.1 | > 100
Nc1nc(Nc2ccc(S(N)(=O)=O)cc2)nn1C(=O)c1c(F)cccc1Cl [Cpd 70, 4-[[5-amino-1-(2-chloro-6-fluorobenzoyl)-1H-1,2,4-triazol-3-yl]amino]-benzenesulfonamide] | 196 | > 100 | > 100 | 19.4 | 0.22 | 1580 | 16.2 | > 100
CNS(=O)(=O)c1ccc(Nc2nc(N)n(C(=O)c3c(F)ccc(C)c3F)n2)cc1 [Cpd 81, 4-[[5-amino-1-(2,6-difluoro-3-methylbenzoyl)-1H-1,2,4-triazol-3-yl]amino]-N-methyl-benzenesulfonamide] | 189 | > 100 | 29.6 | 11.7 | 0.049 | 778 | 7.76 | > 100
CCc1ccc(C(=O)n2nc(Nc3ccc(S(=O)(=O)NCCN(C)C)cc3)nc2N)s1 [Cpd 103, 4-[[5-amino-1-[(5-ethyl-2-thienyl)carbonyl]-1H-1,2,4-triazol-3-yl]amino]-N-[2-(dimethylamino)ethyl]-benzenesulfonamide] | 62 | 5.3 | 0.123 | 0.845 | 0.013 | 75 | 0.702 | > 100
Cc1ccsc1C(=O)n1nc(Nc2ccc(S(=O)(=O)NCCN(C)C)cc2)nc1N [Cpd 104, 4-[[5-amino-1-[(3-methyl-2-thienyl)carbonyl]-1H-1,2,4-triazol-3-yl]amino]-N-[2-(dimethylamino)ethyl]-benzenesulfonamide] | 186 | > 100 | 2.09 | > 100 | 0.02 | 41 | 0.192 | > 10
Cc1ccsc1C(=O)n1nc(Nc2ccc(N3CCNC3=O)cc2)nc1N [Cpd 113, 1-[4-[[5-amino-1-[(3-methyl-2-thienyl)carbonyl]-1H-1,2,4-triazol-3-yl]amino]phenyl]-2-imidazolidinone] | 242 | > 100 | > 10 | > 100 | 0.071 | 281 | 0.37 | > 10
Cc1ccsc1C(=O)n1nc(Nc2ccc(N3CCCS3(=O)=O)cc2)nc1N [Cpd 116, N^3-[4-(1,1-dioxido-2-isothiazolidinyl)phenyl]-1-[(3-methyl-2-thienyl)carbonyl]-1H-1,2,4-triazole-3,5-diamine] | 380 | > 100 | > 100 | > 100 | 0.062 | 349 | 0.302 | > 100
Nc1nc(Nc2ccc(N3CCCS3(=O)=O)cc2)nn1C(=O)c1c(F)cccc1F [Cpd 117] | 2060 | > 100 | > 100 | > 100 | 1.04 | 1120 | > 100 | > 100
